# Measured values from publication PMC11229374, “Unlocking the potential of protein-derived peptides to target G-quadruplex DNA: from recognition to anticancer activity” (Nucleic Acids Research, 2024).
# *: point of attachment. FITC = O=C1OC2(c3ccc(O)cc3Oc3cc(O)ccc32)c2ccc(NC(=S)*)cc21; AEEA = NCCOCCOCC(=O)O
# B1: ds12 (dsDNA)
# DNA 1: CGCGAATTCGCG
# DNA 2: CGCGAATTCGCG
# Legend:
# [1] = tested on: U2OS cells; assay: Viability assay (crystal violet), U2OS; format: cell-based; conditions: for Impact on cancer cell viability, peptides in native form: unconjugated peptides
# Experimental: U2OS, HCT116 and MDA-MB-231 cells were purchased from the ATCC and grown in Dulbecco modified Eagle's medium (DMEM; EuroClone, Milan, Italy; ECM0728L) supplemented with 10% Fetal Bovine Serum (FBS, ThermoFisher Scientific/Gibco, Waltham, MA, USA; 10270-106), 2 mM L-glutamine and antibiotics in a humidified incubator at 37°C with 5% CO2 and atmospheric O2 concentration. Cell lines were authenticated and tested to be mycoplasma-free.
# U2OS, HCT116, and MDA-MB-231 cells were seeded in 24-well plates at a density of 1 × 10^4, 20 × 10^3 and 12 × 10^3 for each well, respectively. After 24 h, cells were treated with the indicated peptides and incubated at 37°C for additional 72 h. Upon treatment completion, cell medium was removed, the wells were washed twice in phosphate-buffered saline (PBS) and fixed with 4% formaldehyde for 15 min at room temperature (RT). After washing, 500 μl of crystal violet staining solution (Sigma-Aldrich, St. Louis, MO, USA) was added to each well and incubated for 30 min at RT. Finally, the plates were rinsed twice with water, air-dried and cell pellets were dissolved in 400 μl of a 10% aqueous solution of acetic acid. In total, 200 μl of each sample was transferred to a 96-well plate, and the optical density was measured at 570 nm (OD570) with an ELISA reader (Thermo Scientific, Waltham, MA, USA). The average absorbance in each condition was used to calculate the viability expressed as a percentage of treated vs untreated conditions (CTR).
# [2] = tested on: c-KIT2 G4; assay: CD melting, thermal stabilization of c-KIT2 G4; format: binding, human; conditions: for ΔT1/2 of c-KIT2 G4: CD melting at 264 nm, 2 mol equiv of peptide with respect to G4, 2 μM DNA, 5 mM KH2PO4/K2HPO4 pH 7.0, 20 mM KCl, average of three, T1/2 c-KIT2 alone 59.5°C; for ΔΔT1/2, change in c-KIT2 G4-stabilizing properties with respect to Myb^397–415: CD melting, 2 mol equiv peptide, difference to Myb^397–415
# Excerpt: The buffer baseline was subtracted from each spectrum.
# [3] = tested on: c-KIT2 G4; assay: Isothermal titration calorimetry (ITC) with c-KIT2 G4; format: binding, human; conditions: ITC at 25°C, triplicate; for Ka: c-KIT2 G4 16–20 μM, peptide 280–400 μM, 5 mM KH2PO4/K2HPO4, 20 mM KCl, pH 7.0; for Kd: c-KIT2 G4, Kd = 1/Ka
# Experimental: ITC experiments were conducted at 25°C using a nano-ITC Low Volume calorimeter (TA instruments, Lindon, UT, USA). DNA and peptide solutions were prepared using the same batch of buffer (5 mM KH2PO4/K2HPO4 buffer containing 20 mM KCl, pH 7.0) to prevent differences in buffer composition and pH. Each titration consisted of 25 injections of a 2 μl peptide solution (280–400 μM) sequentially injected using a computer-controlled 50 μl syringe, into the calorimetric vessel (190 μl) containing the oligonucleotide (16–20 μM). A spacing of 300 s between each injection was applied to allow the system to reach the equilibrium. The heat generated by peptide dilution was assessed in a control experiment by injecting the peptide solution into the buffer (Supplementary Figure S30). All measurements were performed in triplicate. Subsequently, the interaction heat for each injection was calculated considering the correction for the heat of peptide dilution. The corrected heat values were plotted as a function of the molar ratio to provide binding isotherms. The isotherms were fitted with a multiple-sites binding model using the NanoAnalyze software (TA instruments) provided with the instrument. This analysis provided the equilibrium binding constant (Ka), binding enthalpy (ΔH°), and stoichiometry of interaction (n). The equilibrium dissociation constant (Kd), Gibbs free-energy change and entropy change were determined using the following relationships: Kd = 1/Ka, ΔG° = -RT ln Ka (R = 8.314 J mol^−1 K^−1, T = 298.15 K), and TΔS° = ΔH° – ΔG°.
# [4] = biological target: c-KIT2 G4; assay: Microscale thermophoresis (MST) binding to c-KIT2 G4; parameters: species or system human; conditions: 25°C, 20 nM FITC-labelled peptide, DNA serial dilution, 5 mM KH2PO4/K2HPO4 pH 7.0, 20 mM KCl, 0.1% Tween, 5% DMSO
# Experimental: MST experiments were conducted using a Monolith NT.115 instrument (NanoTemper Technologies, Munich, Germany) at 25°C with medium MST power settings. […] DNA samples were also diluted using the same buffer supplemented with 0.1% Tween. During MST experiments, the concentration of the labelled peptide was kept constant at 20 nM, while a serial dilution of the investigated DNA molecules (ranging from 10 or 20 μM) was prepared and mixed with the peptide solution in a 1:1 volume ratio. All the samples, with a final concentration of 5% DMSO, were loaded into standard capillaries (NanoTemper Technologies) for MST measurements. Data analysis was carried out using the MO.Affinity Analysis (v2.3) software provided with the instrument.
# [5] = biological target: T1, FITC-Myb397-415 (UniProt P11938); assay: MST; conditions: 2'-F-ANA-guanosine at bold G; positions lost in the text; 5 mM KH2PO4/K2HPO4 pH 7.0, 20 mM KCl (LiCl for c-MYC stock), 25 C; MST with 0.1% Tween and 5% DMSO, 20 nM FITC-peptide
# T1 sequence: NHTGNSIRHRFRVYLSKRL
# [6] = biological target: T2, FITC-Myb397-415 (UniProt P11938 397-415); assay: microscale thermophoresis; 5 mM KH2PO4/K2HPO4, 20 mM KCl (c-MYC stock annealed in LiCl), pH 7.0; MST 25 C with 0.1% Tween, 5% DMSO, 20 nM labelled peptide, DNA titrated (stocks from 10 or 20 uM, mixed 1:1); ITC 25 C; conditions: tags: N-terminal FITC-O2Oc, C-terminal NH2
# T2 chain: {FITC-AEEA}-NHTGNSIRHRFRVYLSKRL-NH2
# [7] = biological target: T2, FITC-Myb397-415; assay: MST; 20 mM K+; 5 mM KH2PO4/K2HPO4 pH 7.0, 20 mM KCl (LiCl for c-MYC stock), 25 C; MST with 0.1% Tween and 5% DMSO, 20 nM FITC-peptide; conditions: hybrid G4
# [8] = biological target: T3, Myb397-415 (UniProt P11938 397-415); assay: isothermal titration calorimetry; 5 mM KH2PO4/K2HPO4, 20 mM KCl (c-MYC stock annealed in LiCl), pH 7.0; MST 25 C with 0.1% Tween, 5% DMSO, 20 nM labelled peptide, DNA titrated (stocks from 10 or 20 uM, mixed 1:1); ITC 25 C; conditions: tags: N-acetyl; C-terminal NH2; chain copies: 3; parallel G4
# T3 chain: NHTGNSIRHRFRVYLSKRL
molecule,measurement,setting,value
"RRRRRRRW-GG-NHTGNSIRHRFRVYLAKRL [R7W-Myb^A412, Myb^A412 N-terminally conjugated to the cell-penetrating peptide R7W via a glycine–glycine spacer]",Inhibition of tumour cell growth compared with the other R7W-conjugated peptides,"[1]; 72 h, at the 5 μM concentration",slightly more effective than the others
same,"Inhibition of tumour cell growth, R7W-conjugated peptides",[1]; 72 h treatment,essentially to the same extent as R7W-Myb^397–415
NHTGNSIRHAFRVYLSKRL [Myb^A406],ΔT1/2 of c-KIT2 G4,[2],12.1 (±0.3) °C
NHTGNAIRHRFRVYLSKRL [Myb^A402],ΔT1/2 of c-KIT2 G4,[2],18.5 (±0.2) °C
NHTGNSIAHRFRVYLSKRL [Myb^A404],ΔT1/2 of c-KIT2 G4,[2],16.6 (±0.2) °C
NHTGNSIRHRFRVYASKRL [Myb^A411],ΔT1/2 of c-KIT2 G4,[2],19.5 (±0.4) °C
NHTGNSIRHRFRVYLSARL [Myb^A413],ΔT1/2 of c-KIT2 G4,[2],10.7 (±0.6) °C
Ac-NHTGNSIRHRFRVYLAKRL-NH2 [Myb^A412],Ka,[3],5.3 (±0.8) ×10^6 M^−1
same,Kd,[3],187 nM
same,"Impact on cancer cell viability, peptides in native form",[1]; 72 h treatment,unable to significantly impact cancer cells viability
same,Kd,[4],~130 nM
same,ΔT1/2 of c-KIT2 G4,[2],23.3 (±0.2) °C
same,"ΔΔT1/2, change in c-KIT2 G4-stabilizing properties with respect to Myb^397–415",[2],6.0 °C
NHTGNSIRHRFRVYLSKRA [Myb^A415],ΔT1/2 of c-KIT2 G4,[2],17.8 (±0.5) °C
NHTGNSIRARFRVYLSKRL [Myb^A405],ΔT1/2 of c-KIT2 G4,[2],16.0 (±0.2) °C
NHTGNSARHRFRVYLSKRL [Myb^A403],ΔT1/2 of c-KIT2 G4,[2],17.7 (±0.2) °C
NHTGNSIRHRARVYLSKRL [Myb^A407],ΔT1/2 of c-KIT2 G4,[2],17.8 (±0.2) °C
NHTGNSIRHRFAVYLSKRL [Myb^A408],ΔT1/2 of c-KIT2 G4,[2],14.0 (±0.6) °C
RRWWRRWRR-GG-NHTGNSIRHRFRVYLSKRL [R6W3-Myb^397–415],IC50,"[1]; 72 h treatment, read-out: IC50 (concentration of drug capable of killing 50% of cells)",~10000 nM
NHAGNSIRHRFRVYLSKRL [Myb^A399],ΔT1/2 of c-KIT2 G4,[2],18.5 (±0.2) °C
TAGGGTTAGGGTTAGGGTTAGGG [HT-FANA],Kd,[5],140 nM
NHTGASIRHRFRVYLSKRL [Myb^A401],ΔT1/2 of c-KIT2 G4,[2],19.7 (±0.2) °C
NHTGNSIRHRFRAYLSKRL [Myb^A409],ΔT1/2 of c-KIT2 G4,[2],14.7 (±0.6) °C
NHTGNSIRHRFRVYLSKAL [Myb^A414],ΔT1/2 of c-KIT2 G4,[2],10.7 (±0.6) °C
NATGNSIRHRFRVYLSKRL [Myb^A398],ΔT1/2 of c-KIT2 G4,[2],19.8 (±0.2) °C
AHTGNSIRHRFRVYLSKRL [Myb^A397],ΔT1/2 of c-KIT2 G4,[2],18.0 (±0.2) °C
Ac-NHTANSIRHRFRVYLSKRL-NH2 [Myb^A400],Ka,[3],7.3 (±1.3) ×10^6 M^−1
same,Kd,[3],137 nM
same,"Impact on cancer cell viability, peptides in native form",[1]; 72 h treatment,unable to significantly impact cancer cells viability
same,Kd,[4],~170 nM
same,ΔT1/2 of c-KIT2 G4,[2],21.1 (±0.4) °C
same,"ΔΔT1/2, change in c-KIT2 G4-stabilizing properties with respect to Myb^397–415",[2],3.8 °C
NHTGNSIRHRFRVALSKRL [Myb^A410],ΔT1/2 of c-KIT2 G4,[2],13.6 (±0.2) °C
TCGGGTTGCGGGCGCAGGGCACGGGCG (structured_DNA) [HRAS1],binding result,[6]; antiparallel G4,no binding
GGGTTTGGGTTTTGGGAGGG (structured_DNA) [LWDLN1],binding result,[6]; antiparallel G4,no binding
GGGTACCCGGGTGAGGTGCGGGGT (structured_DNA) [VEGFR-17T],binding result,[6]; hybrid (mixed parallel/antiparallel) G4,no binding
AGGGAGGGCGCTGGGAGGAGGG (structured_DNA) [c-KIT1],Kd,[6]; parallel G4,340 ± 44 nM
TTAGGGTTAGGGTTAGGGTTAGGGTT (structured_DNA) [HT2],Kd,[6]; hybrid G4,1180 ± 90 nM
same,Kd,[7],1180 ± 90 nM
B1,binding result,"[6]; blunt, self-complementary",no binding
GGGCGCGGGAGGAATTGGGCGGG (structured_DNA) [BCL-2],Kd,[6]; hybrid G4,280 ± 42 nM
TGAGGGTGGGTAGGGTGGGTAA (structured_DNA) [c-MYC],Kd,[6]; parallel G4,430 ± 100 nM
TTGGGTTAGGGTTAGGGTTAGGGA (structured_DNA) [HT1],Kd,[6]; hybrid G4,900 ± 140 nM
same,Kd,[7],900 ± 140 nM
GGAGAAGGAGGAGGTGGAGGAGGAGGG (structured_DNA) [HER2],Kd,[6]; parallel G4,130 ± 20 nM
same,Kd,[8],100 ± 10 nM
